The results in this text go back to PubChem BioAssay (NCI).

By GI50 is commonly meant the concentration giving 50% growth inhibition. A word on the TGI: it is the concentration giving total growth inhibition. A lower TGI goes with more potent growth arrest.

“And” between values parts separate entries of the source, which are not always exact repeats. Equal values may be shown once.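 Five compound concentrations were applied to cells in 96-well plates for 48 hours; endpoints were derived by simple linear interpolation of the resulting dose-response curve. GI50 = concentration required for 50% inhibition of growth. TGI denotes the concentration required for complete inhibition of growth.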

Test systems include K-562 leukemia; M14 melanoma; MALME-3M melanoma; MCF7 breast; OVCAR-4 ovarian; SK-MEL-28 melanoma; SK-MEL-5 melanoma; SK-OV-3 ovarian; SNB-19 CNS; U251 CNS.
Common to all, as to experiment: DTP human tumour cell line panel, 48 h

On to `CN(CO)c1nc(N(C)CO)nc(N(C)CO)n1`, for which the GI50 is 27.2 µM with K-562 leukemia; 19.5 µM in the experiment on M14 melanoma; 17.5 µM in the experiment with MALME-3M melanoma; 32 µM with MCF7 breast; 18.9 µM and 23.8 µM in the experiment with OVCAR-4 ovarian; 18.3 µM in the experiment on SK-MEL-28 melanoma. Also, the GI50 in the experiment with SK-MEL-5 melanoma is 18.1 µM; in the experiment with SK-OV-3 ovarian, 59.1 µM; with SNB-19 CNS, 29.8 µM; in the experiment with U251 CNS it was 29.6 µM. The TGI in the experiment with K-562 leukemia was 140 µM; in the experiment with M14 melanoma, 36.4 µM and 42.8 µM; with MALME-3M melanoma, 34.2 µM and 26.1 µM; with MCF7 breast, 99.1 µM and 56.4 µM; in the experiment on OVCAR-4 ovarian, 39.1 µM and 55.6 µM; in the experiment with SK-MEL-28 melanoma, 36.7 µM and 28.4 µM. Besides, the total growth inhibition concentration (TGI) is 32.2 µM and 33.8 µM in the experiment with SK-MEL-5 melanoma; > 82.1 µM and 54.2 µM in the experiment on SK-OV-3 ovarian; 45.3 µM and 50.4 µM in the experiment on SNB-19 CNS; 72.8 µM and 46.2 µM in the experiment with U251 CNS.
Take `COc1ccccc1/C=C1\CCC(CN2CCOCC2)C1=O` (stereo unspecified): the TGI in the experiment with K-562 leukemia is 10.3 µM; in the experiment with M14 melanoma, 18.8 µM; in the experiment on MALME-3M melanoma it was 23.7 µM; in the experiment on MCF7 breast, 21.8 µM; in the experiment on OVCAR-4 ovarian it was 35.6 µM; with SK-MEL-28 melanoma, 29.6 µM. In addition, the TGI in the experiment with SK-MEL-5 melanoma is 28.7 µM; in the experiment on SK-OV-3 ovarian, > 57.5 µM; in the experiment with SNB-19 CNS, 22.6 µM; in the experiment on U251 CNS, 34.2 µM.
As for `O=C(O)C1C2C=CC(O2)C1C(=O)NCc1ccncc1` (stereo unspecified), the total growth inhibition concentration (TGI) in the experiment with K-562 leukemia, with M14 melanoma, with MALME-3M melanoma, in the experiment on MCF7 breast, in the experiment with OVCAR-4 ovarian and in the experiment on SK-MEL-28 melanoma was > 100 µM each time. The total growth inhibition concentration (TGI) in the experiment on SK-MEL-5 melanoma, in the experiment on SK-OV-3 ovarian, in the experiment with SNB-19 CNS and with U251 CNS was > 100 µM throughout.
`O=C(Nc1cccc(-n2ccc3c(NC(=O)c4ccccc4)nccc32)c1)c1ccc(Cl)c(Cl)c1`: the GI50 with K-562 leukemia was 0.0551 µM; in the experiment with M14 melanoma, 0.117 µM; in the experiment on MALME-3M melanoma, 0.242 µM; in the experiment on MCF7 breast, 0.04 µM; in the experiment with OVCAR-4 ovarian, 0.611 µM; in the experiment with SK-MEL-28 melanoma, 0.298 µM. The GI50 in the experiment with SK-MEL-5 melanoma was 0.0719 µM; with SK-OV-3 ovarian, 0.0956 µM; in the experiment with SNB-19 CNS it was 0.219 µM; in the experiment with U251 CNS it was 0.0875 µM. Moreover, the concentration for total growth inhibition (TGI) in the experiment on M14 melanoma was 0.802 µM; in the experiment on MALME-3M melanoma, 2.27 µM; in the experiment with MCF7 breast it was 1.43 µM; in the experiment with OVCAR-4 ovarian, 2 µM; with SK-MEL-28 melanoma, 2.06 µM; in the experiment on SK-MEL-5 melanoma it was 0.347 µM. In addition, the TGI with SK-OV-3 ovarian came out at 1.1 µM; in the experiment with SNB-19 CNS, 1.89 µM; with U251 CNS, 1.6 µM.
As for `Cl.[O-]c1cccc2cccnc12.[O-]c1cccc2cccnc12.[O-]c1cccc2cccnc12.[O-]c1cccc2cccnc12.[Ti+4]`, the concentration for 50% growth inhibition (GI50) in the experiment on K-562 leukemia was 0.303 µM; in the experiment with M14 melanoma, 0.994 µM; with MALME-3M melanoma, 1.91 µM; with MCF7 breast, 0.955 µM; in the experiment with OVCAR-4 ovarian, 0.959 µM; with SK-MEL-28 melanoma, 4.33 µM. Also, the GI50 with SK-OV-3 ovarian is 3.94 µM; with SNB-19 CNS it was 70.8 µM; in the experiment on U251 CNS it was 2.53 µM. Besides, the concentration for total growth inhibition (TGI) is 17.8 µM with M14 melanoma; > 40.2 µM with MALME-3M melanoma; > 100 µM in the experiment with MCF7 breast; > 35.4 µM in the experiment with SK-MEL-28 melanoma; 2.46 µM with SK-MEL-5 melanoma; > 73.8 µM in the experiment with SK-OV-3 ovarian. Moreover, the TGI in the experiment with SNB-19 CNS was > 100 µM; with U251 CNS, 30.5 µM.
`Cc1cc(C(=O)CC(Cl)=C(Cl)Cl)c(Cl)cc1Cl`: the GI50 was 20.7 µM with K-562 leukemia; 31.7 µM in the experiment with M14 melanoma; 14.3 µM with MALME-3M melanoma; 29.1 µM in the experiment on MCF7 breast; 27.6 µM with OVCAR-4 ovarian; 33.5 µM in the experiment with SK-MEL-28 melanoma. The GI50 is 18 µM in the experiment with SK-MEL-5 melanoma, 49.8 µM with SK-OV-3 ovarian, 35.4 µM with SNB-19 CNS and 18.6 µM in the experiment with U251 CNS. Also, the TGI was 47.6 µM in the experiment with K-562 leukemia; 78.2 µM in the experiment with M14 melanoma; 34.5 µM in the experiment with MALME-3M melanoma; > 100 µM in the experiment with MCF7 breast; 72.3 µM in the experiment with OVCAR-4 ovarian; > 100 µM in the experiment on SK-MEL-28 melanoma. Further, the concentration for total growth inhibition (TGI) was 39.9 µM in the experiment on SK-MEL-5 melanoma, > 100 µM in the experiment with SK-OV-3 ovarian, > 100 µM with SNB-19 CNS and 38.1 µM in the experiment on U251 CNS.
On to `N#Cc1ccc(O)c(C2=NCC(c3ccc(-c4ccccc4)cc3)O2)c1` (stereo unspecified), for which the GI50 in the experiment on K-562 leukemia is 0.338 µM; in the experiment with M14 melanoma it was 0.399 µM; with MALME-3M melanoma, 1.71 µM; in the experiment on MCF7 breast, 0.343 µM; in the experiment with OVCAR-4 ovarian, 0.32 µM; in the experiment with SK-MEL-28 melanoma it was 1.34 µM. Further, the GI50 was 0.532 µM in the experiment with SK-MEL-5 melanoma, 0.664 µM in the experiment with SK-OV-3 ovarian, 0.489 µM in the experiment on SNB-19 CNS and 0.326 µM in the experiment with U251 CNS. In addition, the TGI was > 100 µM with K-562 leukemia; 2.95 µM in the experiment on M14 melanoma; 14.3 µM with MALME-3M melanoma; 11.8 µM in the experiment on MCF7 breast; 10.1 µM with OVCAR-4 ovarian; 43.8 µM with SK-MEL-28 melanoma. The TGI is 2.28 µM with SK-MEL-5 melanoma, 14.4 µM with SK-OV-3 ovarian, 26.4 µM with SNB-19 CNS and 11.6 µM with U251 CNS.
Regarding `Cc1cnc(-c2ccc(-c3ccc(NC(=O)Nc4cccc(C(F)(F)F)c4)cc3F)c3c2C(=O)NC3)[nH]1`, the GI50 with K-562 leukemia was 1.43 µM; with M14 melanoma, 0.624 µM; in the experiment with MALME-3M melanoma it was 1.47 µM; with MCF7 breast, 2.04 µM; in the experiment with OVCAR-4 ovarian it was 8.96 µM; with SK-MEL-28 melanoma, 11.5 µM. The GI50 in the experiment on SK-MEL-5 melanoma is 23.6 µM; in the experiment with SK-OV-3 ovarian it was 6.97 µM; in the experiment on SNB-19 CNS, 17.4 µM; in the experiment with U251 CNS, 11.3 µM. For the same compound, the TGI was 31.9 µM in the experiment with K-562 leukemia; 32.9 µM in the experiment on M14 melanoma; 23.1 µM in the experiment with MALME-3M melanoma; 25.3 µM in the experiment with MCF7 breast; 23.8 µM in the experiment with OVCAR-4 ovarian; 37.7 µM in the experiment on SK-MEL-28 melanoma. Moreover, the TGI is > 65.6 µM in the experiment with SK-MEL-5 melanoma, 39.7 µM in the experiment on SK-OV-3 ovarian, > 53.4 µM with SNB-19 CNS and 32 µM with U251 CNS.
